Legend:
[1] = in vivo
[2] = in vivo; cited from earlier work

| SMILES | Class(High: HIA value ≥0.7; Low: HIA value < 0.7) [1] | HIA(Human Intestinal Absorption) [2] |
| --- | --- | --- |
| C[C@]12CCC(=O)C=C1CC[C@@H]1[C@@H]2[C@@H](O)C[C@@]2(C)[C@H]1CC[C@]2(O)C(=O)CO [Hydrocortisone] | High (key: High: HIA value ≥0.7; Low: HIA value < 0.7) | 0.91 |
| CCN(CCO)CCC[C@@H](C)Nc1ccnc2cc(Cl)ccc12 [Hydroxychloroquine(R)] | High (key: High: HIA value ≥0.7; Low: HIA value < 0.7) | 0.9 |
| CCN(CCO)CCC[C@H](C)Nc1ccnc2cc(Cl)ccc12 [Hydroxychloroquine(S)] | High (key: High: HIA value ≥0.7; Low: HIA value < 0.7) | 0.9 |
| CCCCCCCN(CC)CCC[C@@H](O)c1ccc(NS(C)(=O)=O)cc1 [Ibutilide(R)] | High (key: High: HIA value ≥0.7; Low: HIA value < 0.7) | 0.82 |
| CCCCCCCN(CC)CCC[C@H](O)c1ccc(NS(C)(=O)=O)cc1 [Ibutilide(S)] | High (key: High: HIA value ≥0.7; Low: HIA value < 0.7) | 0.82 |
| CC[C@@H](C(=O)O)c1ccc(N2Cc3ccccc3C2=O)cc1 [Indobufen(R)] | High (key: High: HIA value ≥0.7; Low: HIA value < 0.7) | 1 |
| CC[C@H](C(=O)O)c1ccc(N2Cc3ccccc3C2=O)cc1 [Indobufen(S)] | High (key: High: HIA value ≥0.7; Low: HIA value < 0.7) | 1 |
| CC(C)NC[C@H](O)c1ccc(O)c(O)c1 [Isoproterenol(R)] | High (key: High: HIA value ≥0.7; Low: HIA value < 0.7) | 0.85 |
| CC(C)NC[C@@H](O)c1ccc(O)c(O)c1 [Isoproterenol(S)] | High (key: High: HIA value ≥0.7; Low: HIA value < 0.7) | 0.85 |
| O=[N+]([O-])O[C@H]1CO[C@H]2[C@@H]1OC[C@H]2O [Isosorbide-2-mononitrate] | High (key: High: HIA value ≥0.7; Low: HIA value < 0.7) | 0.9 |
| O=[N+]([O-])O[C@H]1CO[C@H]2[C@@H]1OC[C@H]2O[N+](=O)[O-] [Isosorbide_dinitrate] | High (key: High: HIA value ≥0.7; Low: HIA value < 0.7) | 1 |
| COC(=O)C1=C(C)NC(C)=C(C(=O)OC(C)C)[C@@H]1c1cccc2nonc12 [Isradipine(R)] | High (key: High: HIA value ≥0.7; Low: HIA value < 0.7) | 0.92 |
| COC(=O)C1=C(C)NC(C)=C(C(=O)OC(C)C)[C@H]1c1cccc2nonc12 [Isradipine(S)] | High (key: High: HIA value ≥0.7; Low: HIA value < 0.7) | 0.92 |
| CCC(C)n1ncn(-c2ccc(N3CCN(c4ccc(OCC5COC(Cn6cncn6)(c6ccc(Cl)cc6Cl)O5)cc4)CC3)cc2)c1=O [Itraconazole(R)] | High (key: High: HIA value ≥0.7; Low: HIA value < 0.7) | 0.8 |
| CC[C@H](C)[C@H]1O[C@]2(CC[C@@H]1C)C[C@@H]1C[C@@H](C/C=C(\C)[C@@H](O[C@H]3C[C@H](OC)[C@@H](O[C@H]4C[C@H](OC)[C@@H](O)[C@H](C)O4)[C@H](C)O3)[C@@H](C)/C=C/C=C3\CO[C@@H]4[C@H](O)C(C)=C[C@@H](C(=O)O1)[C@]34O)O2 [Ivermectin] | Low (key: High: HIA value ≥0.7; Low: HIA value < 0.7) | 0.6 |
| NC[C@H]1O[C@H](O[C@H]2[C@H](O)[C@@H](O[C@H]3O[C@H](CO)[C@@H](O)[C@H](N)[C@H]3O)[C@H](N)C[C@@H]2N)[C@H](O)[C@@H](O)[C@@H]1O [Kanamycin] | Low (key: High: HIA value ≥0.7; Low: HIA value < 0.7) | 0.01 |
| CC1=CC(=O)N2CC(=O)N(C)c3ccc(Cl)cc3C2(c2ccccc2)O1 (centres unmarked) [Ketazolam] | High (key: High: HIA value ≥0.7; Low: HIA value < 0.7) | 1 |
| O=C(c1ccccc1)c1ccc2n1CC[C@H]2C(=O)O [Ketorolac(R)] | High (key: High: HIA value ≥0.7; Low: HIA value < 0.7) | 0.95 |
| O=C(c1ccccc1)c1ccc2n1CC[C@@H]2C(=O)O [Ketorolac(S)] | High (key: High: HIA value ≥0.7; Low: HIA value < 0.7) | 0.95 |
| CC[C@@H](C(N)=O)N1CCCC1=O [Levetiracetam(S)] | High (key: High: HIA value ≥0.7; Low: HIA value < 0.7) | 1 |
| CCn1cc(C(=O)O)c(=O)c2cc(F)c(N3CCN[C@H](C)C3)c(F)c21 [Lomefloxacin(R)] | High (key: High: HIA value ≥0.7; Low: HIA value < 0.7) | 0.99 |
| CCn1cc(C(=O)O)c(=O)c2cc(F)c(N3CCN[C@@H](C)C3)c(F)c21 [Lomefloxacin(S)] | High (key: High: HIA value ≥0.7; Low: HIA value < 0.7) | 0.99 |
| N[C@@H](C(=O)N[C@@H]1C(=O)N2C(C(=O)O)=C(Cl)CC[C@H]12)c1ccccc1 [Loracarbef] | High (key: High: HIA value ≥0.7; Low: HIA value < 0.7) | 1 |

| SMILES | Class(High: HIA value ≥0.7; Low: HIA value < 0.7) [1] | HIA(Human Intestinal Absorption) [2] |
| --- | --- | --- |
| O=C1Nc2ccc(Cl)cc2C(c2ccccc2Cl)=N[C@@H]1O [Lorazepam(R)] | High (key: High: HIA value ≥0.7; Low: HIA value < 0.7) | 0.95 |
| O=C1Nc2ccc(Cl)cc2C(c2ccccc2Cl)=N[C@H]1O [Lorazepam(S)] | High (key: High: HIA value ≥0.7; Low: HIA value < 0.7) | 0.95 |
| CN1C(=O)[C@@H](O)N=C(c2ccccc2Cl)c2cc(Cl)ccc21 [Lormetazepam(R)] | High (key: High: HIA value ≥0.7; Low: HIA value < 0.7) | 1 |
| CN1C(=O)[C@H](O)N=C(c2ccccc2Cl)c2cc(Cl)ccc21 [Lormetazepam(S)] | High (key: High: HIA value ≥0.7; Low: HIA value < 0.7) | 1 |
| CCN(CCCCOC(=O)c1ccc(OC)c(OC)c1)[C@H](C)Cc1ccc(OC)cc1 [Mebeverine(R)] | High (key: High: HIA value ≥0.7; Low: HIA value < 0.7) | 0.9 |
| CCN(CCCCOC(=O)c1ccc(OC)c(OC)c1)[C@@H](C)Cc1ccc(OC)cc1 [Mebeverine(S)] | High (key: High: HIA value ≥0.7; Low: HIA value < 0.7) | 0.9 |
| CCOC(=O)C1(c2ccccc2)CCN(C)CC1 [Meperidine] | High (key: High: HIA value ≥0.7; Low: HIA value < 0.7) | 1 |
| CC[C@]1(c2cccc(O)c2)CCCCN(C)C1 [Meptazinol(R)] | High (key: High: HIA value ≥0.7; Low: HIA value < 0.7) | 1 |
| CC[C@@]1(c2cccc(O)c2)CCCCN(C)C1 [Meptazinol(S)] | High (key: High: HIA value ≥0.7; Low: HIA value < 0.7) | 1 |
| CC(C)NC[C@H](O)c1cc(O)cc(O)c1 [Metaproterenol(R)] | Low (key: High: HIA value ≥0.7; Low: HIA value < 0.7) | 0.43 |
| CC(C)NC[C@@H](O)c1cc(O)cc(O)c1 [Metaproterenol(S)] | Low (key: High: HIA value ≥0.7; Low: HIA value < 0.7) | 0.43 |
| COc1ccccc1OC[C@@H](O)COC(N)=O [Methocarbamol(R)] | High (key: High: HIA value ≥0.7; Low: HIA value < 0.7) | 1 |
| COc1ccccc1OC[C@H](O)COC(N)=O [Methocarbamol(S)] | High (key: High: HIA value ≥0.7; Low: HIA value < 0.7) | 1 |
| CN(Cc1cnc2nc(N)nc(N)c2n1)c1ccc(C(=O)N[C@@H](CCC(=O)O)C(=O)O)cc1 [Methotrexate(S)] | High (key: High: HIA value ≥0.7; Low: HIA value < 0.7) | 1 |
| COc1ccc(C[C@@H](C)N)cc1 [Methoxyamphetamine(R)] | High (key: High: HIA value ≥0.7; Low: HIA value < 0.7) | 0.8 |
| CN1C(=O)C[C@](C)(c2ccccc2)C1=O [Methsuximide(R)] | High (key: High: HIA value ≥0.7; Low: HIA value < 0.7) | 1 |
| CN1C(=O)C[C@@](C)(c2ccccc2)C1=O [Methsuximide(S)] | High (key: High: HIA value ≥0.7; Low: HIA value < 0.7) | 1 |
| COC(=O)C(c1ccccc1)C1CCCCN1 (centres unmarked) [Methylphenidate] | High (key: High: HIA value ≥0.7; Low: HIA value < 0.7) | 0.8 |
| CC[C@@H](CO)NC(=O)[C@@H]1C=C2c3cccc4c3c(cn4C)C[C@H]2N(C)C1 [Methysergide] | High (key: High: HIA value ≥0.7; Low: HIA value < 0.7) | 1 |
| Cc1ccccc1N1C(=O)c2cc(S(N)(=O)=O)c(Cl)cc2N[C@H]1C [Metolazone(R)] | Low (key: High: HIA value ≥0.7; Low: HIA value < 0.7) | 0.64 |
| Cc1ccccc1N1C(=O)c2cc(S(N)(=O)=O)c(Cl)cc2N[C@@H]1C [Metolazone(S)] | Low (key: High: HIA value ≥0.7; Low: HIA value < 0.7) | 0.64 |
| COCCc1ccc(OC[C@H](O)CNC(C)C)cc1 [Metoprolol(R)] | High (key: High: HIA value ≥0.7; Low: HIA value < 0.7) | 0.96 |
| COCCc1ccc(OC[C@@H](O)CNC(C)C)cc1 [Metoprolol(S)] | High (key: High: HIA value ≥0.7; Low: HIA value < 0.7) | 0.96 |
